Test results published in patent publication US9556150B2, “Inhibitors of bruton's tyrosine kinase” (Hoffmann-La Roche Inc., priority 2013, dated 2017).
Structures can show the parent of a compound that is named as a salt.

Target: Bruton's Tyrosine Kinase (BTK), inactivated state (Homo sapiens (Human), UniProt Q06187)
Assay: Bruton's Tyrosine Kinase (BTK) Inhibition TR-FRET (Time Resolved FRET) competition assay
Assay type: binding
Conditions: TR-FRET competition with Kinase Tracer 178, BTK-Eu complex, 18-24 h at 14° C.
Procedure: Bruton's Tyrosine Kinase (BTK) Inhibition TR-FRET (Time Resolved FRET) Assay
This BTK competition assay measures compound potency (IC50) for the inactivated state of Bruton's Tyrosine Kinase using FRET (Förster/Fluorescence Resonance Energy Transfer) technology. The BTK-Eu complex was incubated on ice one hour prior to use at a starting concentration of 50 nM BTK-Bioease™: 10 nM Eu-streptavidin (Perkin-Elmer Catalog#AD0062). The assay buffer consisted of 20 mM HEPES (pH 7.15), 0.1 mM DTT, 10 mM MgCl2, 0.5 mg/ml BSA with 3% Kinase Stabilizer (Fremont Biosolutions, Catalog #STB-K02). After 1 h, the reaction mixture from above was diluted 10 fold in assay buffer to make 5 nM BTK: 1 nM Eu-Streptavidin complex (donor fluorophore). 18 μl of a mixture of 0.11 nM BTK-Eu and 0.11 nM Kinase Tracer 178 (Invitrogen, Catalog #PV5593,) with BTK-Eu alone as no negative control, was then dispensed into 384-well flat bottom plates (Greiner, 784076). Compounds to be tested in assay were prepared as 10× concentrations and serial dilution in half-log increments was performed in DMSO so as to generate 10 point curves. To initiate the FRET reaction, compounds prepared as 10× stock in DMSO was added to the plates and the plates were incubated 18-24 h at 14° C.
After the incubation the plates were read on a BMG Pherastar Fluorescent plate reader (or equivalent) and used to measure the emission energy from the europium donor fluorophore (620 nm emission) and the FRET (665 nm emission). The negative control well values were averaged to obtain the mean minimum. The positive “no inhibitor” control wells were averaged to obtain the mean maximum. Percent of maximal FRET was calculated using following equation: % max FRET=100×[(FSR cmpd−FSR mean min)/(FSR mean max−FSR mean min)]
where FSR=FRET Signal ratio. % Max FRET curves were plotted in Activity Base (Excel) and the IC50(%), hill slope, z′ and % CV were determined. The mean IC50 and standard deviation will be derived from duplicate curves (singlet inhibition curves from two independent dilutions) using Microsoft Excel.
Representative compound data for this assay are listed below in Table II.

Chain of Bruton's Tyrosine Kinase (BTK), inactivated state (Q06187 whole entry): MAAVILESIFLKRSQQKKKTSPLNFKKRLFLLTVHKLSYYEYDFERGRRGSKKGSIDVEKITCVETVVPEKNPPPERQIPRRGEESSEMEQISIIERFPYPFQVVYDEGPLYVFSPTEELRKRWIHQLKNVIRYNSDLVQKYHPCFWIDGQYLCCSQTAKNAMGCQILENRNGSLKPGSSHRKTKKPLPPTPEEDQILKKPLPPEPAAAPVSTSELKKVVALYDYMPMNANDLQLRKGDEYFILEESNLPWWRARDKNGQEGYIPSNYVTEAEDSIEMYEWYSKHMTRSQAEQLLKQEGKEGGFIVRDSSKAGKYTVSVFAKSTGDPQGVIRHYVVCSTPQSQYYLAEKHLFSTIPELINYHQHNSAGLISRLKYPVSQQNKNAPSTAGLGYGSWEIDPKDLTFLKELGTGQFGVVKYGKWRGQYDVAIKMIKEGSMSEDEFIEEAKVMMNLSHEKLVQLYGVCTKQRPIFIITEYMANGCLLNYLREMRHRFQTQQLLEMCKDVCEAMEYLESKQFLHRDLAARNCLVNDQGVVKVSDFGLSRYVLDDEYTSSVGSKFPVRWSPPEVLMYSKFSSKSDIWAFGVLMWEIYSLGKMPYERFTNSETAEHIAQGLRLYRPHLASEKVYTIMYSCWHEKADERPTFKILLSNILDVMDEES

Row | IC50 | SMILES
1 | 1.4 nM | CN(C)CCNC(=O)c1ccc2[nH]c(C(=O)c3cnn(-c4ccc(Oc5ccccc5C(=O)N(C)C)cc4Cl)c3N)cc2c1 [Example I-49, 2-{5-Amino-1-[2-chloro-4-(2-dimethylcarbamoyl-phenoxy)-phenyl]-1H-pyrazole-4-carbonyl}-1H-indole-5-carboxylic acid (2-dimethylamino-ethyl)-amide]
2 | 6.8 nM | Cc1cc(Oc2cccc(C(C)(C)C)c2)ccc1-n1ncc(C(=O)c2cc3cc(C(=O)N4CCOCC4)ccc3[nH]2)c1N [Example I-19, {5-Amino-1-[4-(3-tert-butyl-phenoxy)-2-methyl-phenyl]-1H-pyrazol-4-yl}-[5-(morpholine-4-carbonyl)-1H-indol-2-yl]-methanone]
3 | 35 nM | Cc1cc(Oc2cccc(F)c2F)cc(C)c1-n1ncc(C(=O)c2cc3cc(C(=O)N4CCOCC4)ccc3[nH]2)c1N [Example I-24, {5-Amino-1-[4-(2,3-difluoro-phenoxy)-2,6-dimethyl-phenyl]-1H-pyrazol-4-yl}-[5-(morpholine-4-carbonyl)-1H-indol-2-yl]-methanone]
4 | 130 nM | Cc1cc(Oc2cccc(C#N)c2)ccc1-n1ncc(C(=O)c2nc3cc(C(=O)O)ccc3[nH]2)c1N [Example I-42, 2-{5-Amino-1-[4-(3-cyano-phenoxy)-2-methyl-phenyl]-1H-pyrazole-4-carbonyl}-1H-benzoimidazole-5-carboxylic acid]
5 | 22 nM | Cc1cc(Oc2cccc(C#N)c2)ccc1-n1ncc(C(=O)c2cc3cc(C(=O)O)ccc3[nH]2)c1N [Example I-32, 2-{5-Amino-1-[4-(3-cyano-phenoxy)-2-methyl-phenyl]-1H-pyrazole-4-carbonyl}-H-indole-5-carboxylic acid]
6 | 23 nM | COCCNC(=O)c1ccc2[nH]c(C(=O)c3cnn(-c4ccc(Oc5cccc(C#N)c5)cc4C)c3N)nc2c1 [Example I-40, 2-{5-Amino-1-[4-(3-cyano-phenoxy)-2-methyl-phenyl]-1H-pyrazole-4-carbonyl}-1H-benzoimidazole-5-carboxylic acid (2-methoxy-ethyl)-amide]
7 | 1.3 nM | Nc1c(C(=O)c2cc3cc(C(=O)N4CCOCC4)ccc3[nH]2)cnn1-c1ccc(Oc2cccc(F)c2F)cc1Br [Example I-22, {5-Amino-1-[2-bromo-4-(2,3-difluoro-phenoxy)-phenyl]-1H-pyrazol-4-yl}-[5-(morpholine-4-carbonyl)-1H-indol-2-yl]-methanone]
8 | 43 nM | Cc1cc(Oc2ccccc2)c(F)cc1-n1ncc(C(=O)c2cc3cc(C(=O)N4CCOCC4)ccc3[nH]2)c1N [Example I-6, {2-[5-Amino-1-(5-fluoro-2-methyl-4-phenoxy-phenyl)-1H-pyrazole-4-carbonyl]-1H-indol-5-yl}-morpholin-4-yl-methanone]
9 | 180 nM | Nc1c(C(=O)c2cc3cc(C(=O)N4CCOCC4)ccc3[nH]2)cnn1-c1ccc(Oc2cccc(F)c2F)nc1 [Example I-10, {5-Amino-1-[6-(2,3-difluoro-phenoxy)-pyridin-3-yl]-1H-pyrazol-4-yl}-[5-(morpholine-4-carbonyl)-1H-indol-2-yl]-methanone]
10 | 1.1 nM | CN(C)C(=O)c1ccccc1Oc1ccc(-n2ncc(C(=O)c3cc4cc(C(=O)N5CCNCC5)ccc4[nH]3)c2N)c(Cl)c1 [Example I-51, 2-(4-{5-Amino-4-[5-(piperazine-1-carbonyl)-1H-indole-2-carbonyl]-pyrazol-1-yl}-3-chloro-phenoxy)-N,N-dimethyl-benzamide acetic acid salt]
11 | 200 nM | Cc1cc(Oc2ccccn2)ccc1-n1ncc(C(=O)c2cc3cc(C(=O)N4CCOCC4)ccc3[nH]2)c1N [Example I-11, {5-Amino-1-[2-methyl-4-(pyridin-2-yloxy)-phenyl]-1H-pyrazol-4-yl}-[5-(morpholine-4-carbonyl)-1H-indol-2-yl]-methanone]
12 | 0.82 nM | Nc1c(C(=O)c2cc3cc(C(=O)N4CCOCC4)ccc3[nH]2)cnn1-c1ccc(Oc2ccccc2F)cc1Cl [Example I-15, {5-Amino-1-[2-chloro-4-(2-fluoro-phenoxy)-phenyl]-1H-pyrazol-4-yl}-[5-(morpholine-4-carbonyl)-1H-indol-2-yl]-methanone]
13 | 12 nM | CN(C)C(=O)c1ccccc1Oc1ccc(-n2ncc(C(=O)c3cc4cc(C(=O)O)ccc4[nH]3)c2N)c(Cl)c1 [Example I-59, 2-{5-Amino-1-[2-chloro-4-(2-dimethylcarbamoyl-phenoxy)-phenyl]-1H-pyrazole-4-carbonyl}-1H-indole-5-carboxylic acid]
14 | 74 nM | COc1nc(Oc2cccc(F)c2F)ccc1-n1ncc(C(=O)c2cc3cc(C(=O)N4CCOCC4)ccc3[nH]2)c1N [Example I-25, {5-Amino-1-[6-(2,3-difluoro-phenoxy)-2-methoxy-pyridin-3-yl]-1H-pyrazol-4-yl}-[5-(morpholine-4-carbonyl)-1H-indol-2-yl]-methanone]
15 | 5.2 nM | Cc1cc(Oc2cccc(C#N)c2)ccc1-n1ncc(C(=O)c2cc3cc(C(=O)N4CCOCC4)ccc3[nH]2)c1N [Example I-18, 3-(4-{5-Amino-4-[5-(morpholine-4-carbonyl)-1H-indole-2-carbonyl]-pyrazol-1-yl}-3-methyl-phenoxy)-benzonitrile]
16 | 6.9 nM | COc1cc(Oc2cccc(F)c2F)ccc1-n1ncc(C(=O)c2cc3cc(C(=O)N4CCOCC4)ccc3[nH]2)c1N [Example I-28, {5-Amino-1-[4-(2,3-difluoro-phenoxy)-2-methoxy-phenyl]-1H-pyrazol-4-yl}-[5-(morpholine-4-carbonyl)-1H-indol-2-yl]-methanone]
17 | 24 nM | Cc1cc(Oc2cccc(C#N)c2)ccc1-n1ncc(C(=O)c2nc3cc(C(=O)N4CCOCC4)ccc3[nH]2)c1N [Example I-39, 3-(4-{5-Amino-4-[5-(morpholine-4-carbonyl)-1H-benzoimidazole-2-carbonyl]-pyrazol-1-yl}-3-methyl-phenoxy)-benzonitrile]
18 | 430 nM | N#Cc1cccc(Oc2ccc(-n3ncc(C(=O)c4cc5cc(Br)ccc5[nH]4)c3N)c(Cl)c2)c1 [Example I-33, 3-{4-[5-Amino-4-(5-bromo-1H-indole-2-carbonyl)-pyrazol-1-yl]-3-chloro-phenoxy}-benzonitrile]
19 | 1.7 nM | N#Cc1cccc(Oc2ccc(-n3ncc(C(=O)c4cc5cc(C(=O)NS(=O)(=O)C6CC6)ccc5[nH]4)c3N)c(Cl)c2)c1 [Example I-45, Cyclopropanesulfonic acid (2-{5-amino-1-[2-chloro-4-(3-cyano-phenoxy)-phenyl]-1H-pyrazole-4-carbonyl}-1H-indole-5-carbonyl)-amide]
20 | 4.3 nM | Nc1c(C(=O)c2cc3cc(C(=O)N4CCOCC4)ccc3[nH]2)cnn1-c1ccc(Oc2cccc(F)c2F)cc1O [Example I-29, {5-Amino-1-[4-(2,3-difluoro-phenoxy)-2-hydroxy-phenyl]-1H-pyrazol-4-yl}-[5-(morpholine-4-carbonyl)-1H-indol-2-yl]-methanone]
21 | 3.6 nM | Cc1cc(Oc2cccc(Cl)c2)ccc1-n1ncc(C(=O)c2cc3cc(C(=O)N4CCOCC4)ccc3[nH]2)c1N [Example I-16, (2-{5-Amino-1-[4-(3-chloro-phenoxy)-2-methyl-phenyl]-1H-pyrazole-4-carbonyl}-1H-indol-5-yl)-morpholin-4-yl-methanone]
22 | 29 nM | COC(=O)c1ccc2[nH]c(C(=O)c3cnn(-c4ccc(Oc5cccc(C#N)c5)cc4C)c3N)cc2c1 [Example I-31, 2-{5-Amino-1-[4-(3-cyano-phenoxy)-2-methyl-phenyl]-1H-pyrazole-4-carbonyl}-H-indole-5-carboxylic acid methyl ester]
23 | 2.1 nM | CNC1CCN(C(=O)c2ccc3[nH]c(C(=O)c4cnn(-c5ccc(Oc6ccccc6C(=O)N(C)C)cc5Cl)c4N)cc3c2)CC1 [Example I-58, 2-(4-{5-Amino-4-[5-(4-methylamino-piperidine-1-carbonyl)-1H-indole-2-carbonyl]-pyrazol-1-yl}-3-chloro-phenoxy)-N,N-dimethyl-benzamide]
24 | 1.3 nM | Cc1cc(Oc2ccccc2C#N)ccc1-n1ncc(C(=O)c2cc3cc(C(=O)N4CCOCC4)ccc3[nH]2)c1N [Example I-43, 2-(4-{5-Amino-4-[5-(morpholine-4-carbonyl)-1H-indole-2-carbonyl]-pyrazol-1-yl}-3-methyl-phenoxy)-benzonitrile]
25 | 14.4 nM | Nc1c(C(=O)c2cc3cc(C(=O)N4CCOCC4)ccc3[nH]2)cnn1-c1ccc(Oc2ccccc2)cc1F [Example I-8, [5-Amino-1-(2-fluoro-4-phenoxy-phenyl)-1H-pyrazol-4-yl]-[5-(morpholine-4-carbonyl)-1H-indol-2-yl]-methanone]
